Key:
[1] = biological target: T1, Alpha-2C adrenergic receptor (Homo sapiens, UniProt P18825); assay: Selectivity interaction (Enzyme panel (GPCRS, ion channels, and transporters)) EUB0000194b ADRA2C
T1 sequence (P18825 whole entry): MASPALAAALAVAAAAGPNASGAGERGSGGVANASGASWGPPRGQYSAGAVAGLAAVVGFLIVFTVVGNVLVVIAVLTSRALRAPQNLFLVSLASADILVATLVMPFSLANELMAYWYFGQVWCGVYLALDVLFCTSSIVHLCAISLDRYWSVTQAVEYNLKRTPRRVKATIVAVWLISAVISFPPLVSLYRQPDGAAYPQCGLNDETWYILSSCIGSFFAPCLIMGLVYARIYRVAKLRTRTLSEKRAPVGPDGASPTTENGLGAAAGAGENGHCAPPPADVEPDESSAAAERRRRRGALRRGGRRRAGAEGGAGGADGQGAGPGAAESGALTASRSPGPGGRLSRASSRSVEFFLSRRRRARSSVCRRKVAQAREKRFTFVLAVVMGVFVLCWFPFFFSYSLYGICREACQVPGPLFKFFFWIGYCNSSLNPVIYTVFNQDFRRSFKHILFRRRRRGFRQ

[2] = biological target: Protein arginine N-methyltransferase 5 (Homo sapiens, UniProt O14744); assay: Selectivity interaction (HMT panel) EUB0000194b PRMT5
[3] = biological target: T2, Histone-lysine N-methyltransferase SETD7 (Homo sapiens, UniProt Q8WTS6); assay: Selectivity interaction (HMT panel) EUB0000194b SETD7
T2 sequence (Q8WTS6 whole entry): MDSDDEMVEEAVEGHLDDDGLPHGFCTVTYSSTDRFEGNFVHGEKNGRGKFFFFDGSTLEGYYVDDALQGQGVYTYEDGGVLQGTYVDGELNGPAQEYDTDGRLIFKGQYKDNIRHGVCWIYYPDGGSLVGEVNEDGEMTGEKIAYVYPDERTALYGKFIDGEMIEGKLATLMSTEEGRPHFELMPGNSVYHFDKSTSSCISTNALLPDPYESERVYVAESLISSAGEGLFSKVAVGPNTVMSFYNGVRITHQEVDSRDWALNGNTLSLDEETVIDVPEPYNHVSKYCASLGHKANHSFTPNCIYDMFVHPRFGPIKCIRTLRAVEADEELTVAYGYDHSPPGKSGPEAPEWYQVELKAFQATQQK

[4] = biological target: Histone-lysine N-methyltransferase 2A (Homo sapiens, UniProt Q03164); assay: Selectivity interaction (HMT panel) EUB0000194b MLL
[5] = biological target: Histone-arginine methyltransferase CARM1 (Homo sapiens, UniProt Q86X55); assay: Selectivity interaction (HMT panel) EUB0000194b CARM1
[6] = biological target: Histone-lysine N-methyltransferase EZH2 (Homo sapiens, UniProt Q15910); assay: Selectivity interaction (HMT panel) EUB0000194b EZH2
[7] = biological target: Protein arginine N-methyltransferase 1 (Homo sapiens, UniProt Q99873); assay: Selectivity interaction (HMT panel) EUB0000194b PRMT1
Sequence of Protein arginine N-methyltransferase 1 (Q99873 whole entry): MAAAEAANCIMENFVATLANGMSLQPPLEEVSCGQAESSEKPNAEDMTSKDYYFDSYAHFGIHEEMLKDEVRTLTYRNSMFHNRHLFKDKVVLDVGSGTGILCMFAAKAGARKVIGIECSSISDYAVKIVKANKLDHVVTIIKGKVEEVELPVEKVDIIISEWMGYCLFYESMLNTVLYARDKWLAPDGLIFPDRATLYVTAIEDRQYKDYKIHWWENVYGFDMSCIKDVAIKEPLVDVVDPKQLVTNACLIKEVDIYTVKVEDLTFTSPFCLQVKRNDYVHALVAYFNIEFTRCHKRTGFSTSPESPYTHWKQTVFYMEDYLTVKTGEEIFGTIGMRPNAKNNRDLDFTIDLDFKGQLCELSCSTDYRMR

[8] = biological target: Protein arginine N-methyltransferase 3 (Homo sapiens, UniProt O60678); assay: Selectivity interaction (HMT panel) EUB0000194b PRMT3
[9] = biological target: Protein arginine N-methyltransferase 8 (Homo sapiens, UniProt Q9NR22); assay: Selectivity interaction (HMT panel) EUB0000194b PRMT8
Sequence of Protein arginine N-methyltransferase 8 (Q9NR22 whole entry): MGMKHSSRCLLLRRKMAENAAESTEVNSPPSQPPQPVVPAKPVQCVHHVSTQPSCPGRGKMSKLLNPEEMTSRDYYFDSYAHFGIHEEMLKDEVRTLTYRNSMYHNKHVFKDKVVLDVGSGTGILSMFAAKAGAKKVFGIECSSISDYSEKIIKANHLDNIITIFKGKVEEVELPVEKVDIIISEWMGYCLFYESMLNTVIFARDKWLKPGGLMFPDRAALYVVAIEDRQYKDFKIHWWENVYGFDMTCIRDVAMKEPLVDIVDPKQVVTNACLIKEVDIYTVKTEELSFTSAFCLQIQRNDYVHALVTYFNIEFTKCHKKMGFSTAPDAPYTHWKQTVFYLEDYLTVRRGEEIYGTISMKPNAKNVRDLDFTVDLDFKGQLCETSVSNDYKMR

[10] = biological target: T3, N-lysine methyltransferase KMT5A (Homo sapiens, UniProt Q9NQR1); assay: Selectivity interaction (HMT panel) EUB0000194b SETD8
T3 sequence (Q9NQR1 whole entry): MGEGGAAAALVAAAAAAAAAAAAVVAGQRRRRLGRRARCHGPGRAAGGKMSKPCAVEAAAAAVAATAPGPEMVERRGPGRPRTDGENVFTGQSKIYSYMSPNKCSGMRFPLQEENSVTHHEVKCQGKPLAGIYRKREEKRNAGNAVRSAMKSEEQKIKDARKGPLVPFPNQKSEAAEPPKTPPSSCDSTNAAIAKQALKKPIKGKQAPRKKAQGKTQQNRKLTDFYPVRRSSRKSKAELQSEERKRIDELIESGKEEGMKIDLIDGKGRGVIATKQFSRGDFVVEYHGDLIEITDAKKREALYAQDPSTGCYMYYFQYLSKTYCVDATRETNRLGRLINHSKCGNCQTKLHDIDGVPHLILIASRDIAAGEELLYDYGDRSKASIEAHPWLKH

[11] = biological target: Histone-lysine N-methyltransferase SETDB1 (Homo sapiens, UniProt Q15047); assay: Selectivity interaction (HMT panel) EUB0000194b SETDB1
[12] = biological target: Histone-lysine N-methyltransferase SUV39H2 (Homo sapiens, UniProt Q9H5I1); assay: Selectivity interaction (HMT panel) EUB0000194b SUV39H2
Sequence of Histone-lysine N-methyltransferase SUV39H2 (Q9H5I1 whole entry): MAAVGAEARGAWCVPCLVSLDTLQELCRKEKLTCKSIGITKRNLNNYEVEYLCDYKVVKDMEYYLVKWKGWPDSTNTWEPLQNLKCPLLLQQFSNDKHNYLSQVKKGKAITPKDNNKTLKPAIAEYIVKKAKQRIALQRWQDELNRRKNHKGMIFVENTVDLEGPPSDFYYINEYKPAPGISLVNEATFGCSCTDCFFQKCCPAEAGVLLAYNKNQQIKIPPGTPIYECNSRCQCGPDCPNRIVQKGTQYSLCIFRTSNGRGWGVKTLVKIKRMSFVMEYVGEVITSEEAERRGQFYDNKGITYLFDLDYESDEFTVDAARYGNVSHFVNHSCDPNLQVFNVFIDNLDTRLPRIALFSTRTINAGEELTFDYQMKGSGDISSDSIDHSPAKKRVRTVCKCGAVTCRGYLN

[13] = biological target: Histone-lysine N-methyltransferase KMT5B (Homo sapiens, UniProt Q4FZB7); assay: Selectivity interaction (HMT panel) EUB0000194b SUV420H1
Sequence of Histone-lysine N-methyltransferase KMT5B (Q4FZB7 whole entry): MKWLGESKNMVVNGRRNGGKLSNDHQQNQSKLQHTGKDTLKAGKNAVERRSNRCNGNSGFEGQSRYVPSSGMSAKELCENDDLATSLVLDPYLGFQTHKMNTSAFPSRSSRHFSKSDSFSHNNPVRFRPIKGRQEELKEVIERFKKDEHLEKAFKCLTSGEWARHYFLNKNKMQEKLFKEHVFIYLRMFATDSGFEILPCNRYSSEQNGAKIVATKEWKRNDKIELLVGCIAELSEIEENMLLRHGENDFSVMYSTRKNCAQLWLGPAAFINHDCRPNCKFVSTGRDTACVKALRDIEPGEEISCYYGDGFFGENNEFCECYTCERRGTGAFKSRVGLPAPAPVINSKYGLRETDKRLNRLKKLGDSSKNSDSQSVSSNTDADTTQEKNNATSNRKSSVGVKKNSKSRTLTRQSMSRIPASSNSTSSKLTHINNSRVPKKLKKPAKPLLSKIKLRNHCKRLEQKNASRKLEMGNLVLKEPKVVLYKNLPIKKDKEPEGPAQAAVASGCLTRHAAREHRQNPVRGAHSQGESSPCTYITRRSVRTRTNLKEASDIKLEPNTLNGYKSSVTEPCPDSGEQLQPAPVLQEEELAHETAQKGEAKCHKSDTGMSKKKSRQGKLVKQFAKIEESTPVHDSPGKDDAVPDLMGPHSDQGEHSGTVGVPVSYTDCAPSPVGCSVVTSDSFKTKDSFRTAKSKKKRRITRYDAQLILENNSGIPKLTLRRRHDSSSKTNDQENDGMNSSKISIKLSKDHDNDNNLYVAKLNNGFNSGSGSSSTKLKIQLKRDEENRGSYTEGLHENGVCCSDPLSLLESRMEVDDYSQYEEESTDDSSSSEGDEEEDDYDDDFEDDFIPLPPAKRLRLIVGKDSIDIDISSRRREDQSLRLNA

[14] = biological target: Histone-lysine N-methyltransferase KMT5C (Homo sapiens, UniProt Q86Y97); assay: Selectivity interaction (HMT panel) EUB0000194b SUV420H2
Sequence of Histone-lysine N-methyltransferase KMT5C (Q86Y97 whole entry): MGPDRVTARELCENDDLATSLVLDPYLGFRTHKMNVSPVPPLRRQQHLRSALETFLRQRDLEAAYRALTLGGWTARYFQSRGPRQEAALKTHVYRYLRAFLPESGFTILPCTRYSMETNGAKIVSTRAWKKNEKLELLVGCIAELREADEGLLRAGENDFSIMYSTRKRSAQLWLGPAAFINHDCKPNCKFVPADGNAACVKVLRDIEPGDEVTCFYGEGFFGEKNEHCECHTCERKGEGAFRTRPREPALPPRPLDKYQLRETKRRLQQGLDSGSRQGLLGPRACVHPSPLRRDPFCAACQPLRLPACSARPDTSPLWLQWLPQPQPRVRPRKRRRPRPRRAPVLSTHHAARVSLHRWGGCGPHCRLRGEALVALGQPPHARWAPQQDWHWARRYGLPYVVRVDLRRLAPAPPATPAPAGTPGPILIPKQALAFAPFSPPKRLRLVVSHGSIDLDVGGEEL

[15] = biological target: T4, Serine/threonine-protein kinase 32C (Homo sapiens, UniProt Q86UX6); assay: Selectivity interaction (ScanMAX (DiscoverX)) EUB0000285b STK32C; conditions: at 1 µM
T4 sequence (Q86UX6 whole entry): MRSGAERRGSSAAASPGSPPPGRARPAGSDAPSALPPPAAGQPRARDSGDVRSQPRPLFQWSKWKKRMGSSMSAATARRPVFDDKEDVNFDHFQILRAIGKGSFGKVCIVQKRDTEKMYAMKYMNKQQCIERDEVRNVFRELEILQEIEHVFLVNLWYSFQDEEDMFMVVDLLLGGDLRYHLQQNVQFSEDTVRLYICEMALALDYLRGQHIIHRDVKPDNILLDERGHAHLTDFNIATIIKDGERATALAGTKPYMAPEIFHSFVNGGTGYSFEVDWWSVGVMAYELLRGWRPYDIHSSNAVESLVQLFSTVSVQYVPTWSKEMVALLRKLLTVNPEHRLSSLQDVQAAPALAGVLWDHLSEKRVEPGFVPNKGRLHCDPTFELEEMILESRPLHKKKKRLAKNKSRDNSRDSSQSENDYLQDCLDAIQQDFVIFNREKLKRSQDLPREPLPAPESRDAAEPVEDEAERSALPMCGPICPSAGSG

[16] = biological target: T4, Serine/threonine-protein kinase 32C; assay: Selectivity interaction (ScanMAX (DiscoverX, competition-binding assay)) EUB0000285b STK32C
[17] = biological target: Testis-specific serine/threonine-protein kinase 1 (Homo sapiens) (UniProt Q9BXA7); assay: Selectivity interaction (ScanMAX (DiscoverX)) EUB0000285b TSSK1B; conditions: at 1 µM
Sequence of Testis-specific serine/threonine-protein kinase 1 (Homo sapiens) (Q9BXA7 whole entry): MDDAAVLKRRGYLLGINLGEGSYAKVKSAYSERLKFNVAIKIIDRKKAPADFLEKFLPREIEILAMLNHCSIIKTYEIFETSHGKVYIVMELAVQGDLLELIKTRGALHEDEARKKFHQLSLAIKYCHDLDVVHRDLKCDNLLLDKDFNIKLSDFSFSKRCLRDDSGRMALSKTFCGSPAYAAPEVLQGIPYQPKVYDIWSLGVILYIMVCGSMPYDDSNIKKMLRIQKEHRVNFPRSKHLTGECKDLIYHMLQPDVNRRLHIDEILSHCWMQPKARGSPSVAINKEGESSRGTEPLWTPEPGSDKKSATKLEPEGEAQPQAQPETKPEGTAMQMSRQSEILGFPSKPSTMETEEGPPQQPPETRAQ

[18] = biological target: Testis-specific serine/threonine-protein kinase 1 (Homo sapiens, UniProt Q9BXA7); assay: Selectivity interaction (ScanMAX (DiscoverX, competition-binding assay)) EUB0000285b TSSK1B
Sequence of Testis-specific serine/threonine-protein kinase 1 (Q9BXA7 whole entry): as above

[19] = biological target: Serine/threonine-protein kinase 4 (Homo sapiens) (UniProt Q13043); assay: Selectivity interaction (ScanMAX (DiscoverX)) EUB0000285b STK4; conditions: at 1 µM
Sequence of Serine/threonine-protein kinase 4 (Homo sapiens) (Q13043 whole entry): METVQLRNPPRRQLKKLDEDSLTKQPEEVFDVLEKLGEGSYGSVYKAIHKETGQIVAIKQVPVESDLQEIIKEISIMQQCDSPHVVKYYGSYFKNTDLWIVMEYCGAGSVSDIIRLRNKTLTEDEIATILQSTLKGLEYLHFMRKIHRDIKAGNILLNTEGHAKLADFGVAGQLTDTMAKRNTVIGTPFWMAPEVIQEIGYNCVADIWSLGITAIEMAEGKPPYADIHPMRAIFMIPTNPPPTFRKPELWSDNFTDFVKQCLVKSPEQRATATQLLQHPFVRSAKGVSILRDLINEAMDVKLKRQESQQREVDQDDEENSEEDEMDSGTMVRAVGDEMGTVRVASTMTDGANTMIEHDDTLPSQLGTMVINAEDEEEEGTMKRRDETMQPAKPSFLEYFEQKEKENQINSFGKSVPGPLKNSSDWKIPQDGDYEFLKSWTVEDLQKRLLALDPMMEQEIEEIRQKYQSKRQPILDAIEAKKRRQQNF

[20] = biological target: Serine/threonine-protein kinase 4 (Homo sapiens, UniProt Q13043); assay: Selectivity interaction (ScanMAX (DiscoverX, competition-binding assay)) EUB0000285b STK4
Sequence of Serine/threonine-protein kinase 4 (Q13043 whole entry): as above

[21] = biological target: T5, Serine/threonine-protein kinase PAK 3 (Homo sapiens, UniProt O75914); assay: Selectivity interaction (ScanMAX (DiscoverX)) EUB0000285b PAK3; conditions: at 1 µM
[22] = biological target: T5, Serine/threonine-protein kinase PAK 3; assay: Selectivity interaction (ScanMAX (DiscoverX, competition-binding assay)) EUB0000285b PAK3
[23] = biological target: T6, Leukocyte tyrosine kinase receptor (Homo sapiens, UniProt P29376); assay: Selectivity interaction (ScanMAX (DiscoverX)) EUB0000285b LTK; conditions: at 1 µM
T6 sequence (P29376 whole entry): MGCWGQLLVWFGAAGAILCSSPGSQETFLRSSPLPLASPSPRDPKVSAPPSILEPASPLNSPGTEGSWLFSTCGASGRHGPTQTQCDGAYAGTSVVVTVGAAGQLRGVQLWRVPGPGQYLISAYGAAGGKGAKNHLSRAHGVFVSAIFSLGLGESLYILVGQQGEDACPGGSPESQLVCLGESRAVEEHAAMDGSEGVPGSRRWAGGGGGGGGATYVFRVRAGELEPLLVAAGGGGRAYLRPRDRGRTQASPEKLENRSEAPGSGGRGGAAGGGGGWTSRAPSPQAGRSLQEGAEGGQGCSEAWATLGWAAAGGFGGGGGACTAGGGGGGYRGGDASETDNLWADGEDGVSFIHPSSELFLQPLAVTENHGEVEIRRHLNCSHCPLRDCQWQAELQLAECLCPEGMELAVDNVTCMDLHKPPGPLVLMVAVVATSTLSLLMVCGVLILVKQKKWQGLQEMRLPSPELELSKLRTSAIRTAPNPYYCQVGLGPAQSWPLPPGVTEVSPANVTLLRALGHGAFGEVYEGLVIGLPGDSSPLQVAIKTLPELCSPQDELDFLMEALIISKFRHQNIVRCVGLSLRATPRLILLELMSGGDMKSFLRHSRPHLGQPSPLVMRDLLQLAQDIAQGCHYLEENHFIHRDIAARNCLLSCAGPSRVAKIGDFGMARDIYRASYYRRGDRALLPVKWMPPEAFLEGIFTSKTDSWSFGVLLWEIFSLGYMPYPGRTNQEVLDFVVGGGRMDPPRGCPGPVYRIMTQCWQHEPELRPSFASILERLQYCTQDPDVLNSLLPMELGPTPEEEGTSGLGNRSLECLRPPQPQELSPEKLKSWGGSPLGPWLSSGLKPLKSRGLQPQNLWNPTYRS

[24] = biological target: T6, Leukocyte tyrosine kinase receptor; assay: Selectivity interaction (ScanMAX (DiscoverX, competition-binding assay)) EUB0000285b LTK
[25] = biological target: T7, Serine/threonine-protein kinase LATS1 (Homo sapiens) (UniProt O95835); assay: Selectivity interaction (ScanMAX (DiscoverX)) EUB0000285b LATS1; conditions: at 1 µM
T7 sequence (whole entry): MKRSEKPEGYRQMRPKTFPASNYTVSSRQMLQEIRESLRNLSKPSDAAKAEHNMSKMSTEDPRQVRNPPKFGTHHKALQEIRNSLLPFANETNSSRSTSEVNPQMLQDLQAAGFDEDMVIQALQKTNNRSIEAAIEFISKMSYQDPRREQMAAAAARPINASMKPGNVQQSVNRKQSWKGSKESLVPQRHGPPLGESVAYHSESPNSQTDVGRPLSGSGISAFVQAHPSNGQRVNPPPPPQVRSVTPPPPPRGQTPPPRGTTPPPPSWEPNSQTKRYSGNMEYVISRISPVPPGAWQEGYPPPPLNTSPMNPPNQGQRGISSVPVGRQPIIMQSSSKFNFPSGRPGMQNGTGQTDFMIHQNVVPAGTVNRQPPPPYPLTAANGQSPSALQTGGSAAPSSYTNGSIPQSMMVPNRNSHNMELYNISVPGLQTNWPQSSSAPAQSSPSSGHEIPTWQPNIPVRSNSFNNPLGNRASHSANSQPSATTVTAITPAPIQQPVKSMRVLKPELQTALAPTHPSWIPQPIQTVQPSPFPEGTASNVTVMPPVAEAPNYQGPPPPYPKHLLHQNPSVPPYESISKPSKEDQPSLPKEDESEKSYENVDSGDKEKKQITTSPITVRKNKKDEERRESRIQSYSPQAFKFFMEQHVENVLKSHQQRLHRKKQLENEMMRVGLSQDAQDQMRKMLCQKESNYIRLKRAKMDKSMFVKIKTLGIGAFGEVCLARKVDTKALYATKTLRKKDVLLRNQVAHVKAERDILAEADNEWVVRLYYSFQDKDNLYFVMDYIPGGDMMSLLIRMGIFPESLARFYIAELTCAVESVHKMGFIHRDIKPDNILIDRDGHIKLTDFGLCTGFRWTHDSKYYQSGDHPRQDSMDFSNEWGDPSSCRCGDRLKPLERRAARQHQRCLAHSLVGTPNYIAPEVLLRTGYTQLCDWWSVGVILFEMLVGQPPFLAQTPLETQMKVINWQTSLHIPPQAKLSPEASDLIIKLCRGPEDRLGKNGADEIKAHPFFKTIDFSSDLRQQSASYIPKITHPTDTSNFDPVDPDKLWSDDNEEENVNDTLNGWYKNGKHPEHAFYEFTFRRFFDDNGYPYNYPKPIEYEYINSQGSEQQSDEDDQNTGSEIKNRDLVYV

[26] = biological target: Serine/threonine-protein kinase LATS1 (Homo sapiens, UniProt O95835); assay: Selectivity interaction (ScanMAX (DiscoverX, competition-binding assay)) EUB0000285b LATS1

COc1cc2c(NC3CCN(C(C)C)CC3)nc(N3CCC(F)(F)CC3)nc2cc1OCCCN1CCCC1
Ki [1]: > 10 µM | IC50 [2]: > 10 µM | IC50 [3]: > 10 µM | IC50 [4]: > 10 µM | IC50 [5]: > 10 µM | IC50 [6]: > 10 µM | IC50 [7]: > 10 µM | IC50 [8]: > 10 µM | IC50 [9]: > 10 µM | IC50 [10]: > 10 µM | IC50 [11]: > 10 µM | IC50 [12]: > 10 µM | IC50 [13]: > 10 µM | IC50 [14]: > 10 µM

O=C(NCc1ccccc1)c1ccc(S(=O)(=O)NCc2ccccc2)cc1
% of control [15]: 0% | Kd [16]: > 10 µM | % of control [17]: 0% | Kd [18]: > 10 µM | % of control [19]: 0% | Kd [20]: > 10 µM | % of control [21]: 0% | Kd [22]: > 10 µM | % of control [23]: 0% | Kd [24]: > 10 µM | % of control [25]: 8.6% | Kd [26]: > 10 µM
